Like-named read-outs stand apart in the source and are kept apart here.
Assays:
[1] = MDCK-MDR1 permeability assay; format: in vitro ADME; details: dog, MDCK-MDR1, pH 7.4, 5 μM, 2 hours; for Papp A→B at 2 h, 5 μM: apical to basolateral; for Papp B→A at 2 h, 5 μM: basolateral to apical
Protocol: (§1) Preparation of MDCK-MDR1 Cells. Cell culture medium of was added to each well of the Transwell insert (50 μL) and reservoir (25 mL). The HTS transwell plates were then incubated at 37° C., 5% CO2 for 1 hour before cell seeding. MDCK-MDR1 cells were diluted to 1.56×10^6 cells/mL with culture medium and 50 μL of cell suspension were dispensed into the filter well of the 96-well HTS Transwell plate. Cells were cultivated for 4-8 days in a cell culture incubator at 37° C., 5% CO2, 95% relative humidity. Cell culture medium was replaced every other day, beginning no later than 24 hours after initial plating.
(§2) Preparation of Stock Solutions. 10 mM stock solutions of test compounds were prepared in DMSO. The stock solutions of positive controls were prepared in DMSO at the concentration of 10 mM. Metoprolol, prazosin and imatinib were used as control compounds in this assay.
(§3) Assessment of Cell Monolayer Integrity. Medium was removed from the reservoir and each Transwell insert and replaced with prewarmed fresh culture medium. Transepithelial electrical resistance (TEER) across the monolayer was measured using Millicell Epithelial Volt-Ohm measuring system (Millipore, USA). The Plate was returned to the incubator once the measurement was done. TEER value should be greater than 42 ohm·cm2, which indicates the well-qualified MDCK-MDR1 monolayer. The TEER value was calculated according to the following equation: TEER measurement (ohms)×Area of membrane(cm^2)=TEER value(ohm·cm^2)
(§4) Assay Procedures. The MDCK-MDR1 plate was removed from the incubator and washed twice with pre-warmed HBSS (10 mM HEPES, pH 7.4), and then incubated at 37° C. for 30 minutes. The stock solutions of test compounds and controls were diluted in DMSO to get 1 mM solutions and then diluted with HBSS (10 mM HEPES, pH 7.4) to get 5 μM working solutions. The final concentration of DMSO in the incubation system was 0.5%.
(§5) To determine the rate of drug transport in the apical to basolateral direction, 125 μL of 5 μM working solution of test compound and control compound were added to the Transwell insert (apical compartment), and transfer 50 μL sample (DO sample) immediately from the apical compartment to a new 96-well plate. The wells in the receiver plate (basolateral compartment) were filled with 235 μL of HBSS (10 mM HEPES, pH 7.4). The assay was performed in duplicate.
(§6) To determine the rate of drug transport in the basolateral to apical direction, 285 μL of 5 μM working solution of test compound and control compound were to the receiver plate wells (basolateral compartment), and transfer 50 μL sample (DO sample) immediately from the basolateral compartment to a new 96-well plate. The wells in the Transwell insert (apical compartment) were filled with 75 μL of HBSS (10 mM HEPES, pH 7.4). The plates were incubated at 37° C. for 2 hours. At the end of the incubation, 50 μL samples from donor sides (apical compartment for Ap→Bl flux, and basolateral compartment for Bl→Ap) and receiver sides (basolateral compartment for Ap→Bl flux, and apical compartment for Bl→Ap) were transferred to wells of a new 96-well plate, followed by the addition of 4 volume of cold methanol containing appropriate internal standards (IS). Samples were Vortexed for 5 minutes and then centrifuged at 3,220 g for 40 minutes. An aliquot of 100 μL of the supernatant was mixed with an appropriate volume of ultra-pure water before LC-MS/MS analysis.
(§7) To determine the Lucifer Yellow leakage after 2 hour transport period, stock solution of Lucifer yellow was prepared in DMSO and diluted with HBSS (10 mM HEPES, pH 7.4) to reach a final concentration of 100 μM. Lucifer yellow solution (100 μL) was added to each Transwell insert (apical compartment), followed by filling the wells in the receiver plate (basolateral compartment) with 300 μL of HBSS (10 mM HEPES, pH 7.4). […]

MDR1 = assay: MDCK-MDR1 permeability assay; format: in vitro ADME; details: dog, MDCK-MDR1, pH 7.4; Papp(B-A)/Papp(A-B)
Protocol: as §1, §2, §3, §4, §5, §6, §7

[2] = Mouse CNS exposure measurement (plasma, CSF, brain); format: in vivo, male C57BL/6J mice; details: male, C57BL/6J; for concentration at 100 min: PO 5 mg/kg; for concentration at 60 min: in vivo, sc, 1 mg/kg, SC 1 mg/kg
Protocol: These rats were typically about 6-8 weeks old, weighing 200 g to 300 g. Animals were fasted overnight and free access to food 4 hours after dosing. A required volume of vehicle was added to reach the target concentration of the test article and vehicle component to prepare for the dosing. The dosing vehicle was PEG400 or 30% PEG400 in saline for IV, or 0.5% methylcellulose in water for PO. For IV dosing, the animals were administered intravenously via tail vein. For PO dosing, the animals were administered via oral gavage. After dosing, blood sample was collected (˜0.2 mL per time point) through jugular vein or heart puncture. Blood of each sample was transferred into plastic micro centrifuge tubes containing EDTA-K2. Collection tubes with blood samples and anticoagulant were inverted several times for proper mixing of the tube contents and then placed on wet ice. The blood samples were centrifuged at 2000 g for 5 minutes at 4° C. to obtain plasma which was stored in a freezer at −75±15° C. prior to analysis. Samples were analyzed using LC-MS/MS. WinNonlin were used for pharmacokinetic calculations.
For CSF sampling, after anesthesia, the foramen magnum was exposed, and a syringe was used with a venoclysis needle to sample the CSF. The CSF samples were stored in polypropylene tubes, then stored in a freezer at −75±15° C. prior to analysis.
For brain sampling, the rats were fully exsanguinated by using a risen of carbon dioxide prior to brain collection. Brain samples were then collected at adopted time point, quick frozen and kept at −75±15° C. All brain samples were weighted and homogenated with PBS by brain weight (g) to PBS volume (mL) ratio 1:3 before analysis. The actual concentration is the detected value multiplied by the dilution factor.
These mice were typically about 6-8 weeks old, weighing 20 g to 30 g. Animals were free access to food before dosing. Sample amount was ˜0.03 mL per time point and sample site was dorsal metatarsal or heart puncture.

| concentration at 100 min ([2]; CSF, read-out: Concentration, CSF) | concentration at 100 min ([2]; brain, read-out: Concentration, Brain) | concentration at 100 min ([2]; plasma, read-out: Concentration, Plasma) | SMILES | Papp A→B at 2 h, 5 μM [1] | Papp B→A at 2 h, 5 μM [1] | efflux ratio at 2 h, 5 μM (MDR1) | concentration at 100 min ([2]; CSF, po, 5 mg/kg, read-out: Concentration, CSF) | concentration at 100 min ([2]; brain, po, 5 mg/kg, read-out: Concentration, Brain) | concentration at 100 min ([2]; plasma, po, 5 mg/kg, read-out: Concentration, Plasma) | concentration at 60 min ([2]; read-out: Concentration, Brain) | concentration at 60 min ([2]; read-out: Concentration, CSF) | concentration at 60 min ([2]; read-out: Concentration, Plasma) |
| --- | --- | --- | --- | --- | --- | --- | --- | --- | --- | --- | --- | --- |
|  |  |  | CC(C)(C)NC[C@H](O)c1cccc(C(F)(F)F)n1 [Compound 03-3] | 25.3 ×10⁻⁶ cm/s | 19.8 ×10⁻⁶ cm/s | 0.78 | 302 ng/mL | 988 ng/g | 557 ng/mL |  |  |  |
| 621 ng/mL | 989 ng/g | 1340 ng/mL | CC(C)(C)NC[C@H](O)c1cccc(C#N)n1 [Compound 03-5, (S)-6-(2-(tert-butylamino)-1-hydroxyethyl)picolinonitrile] | 15.2 ×10⁻⁶ cm/s | 16.2 ×10⁻⁶ cm/s | 1.06 |  |  |  |  |  |  |
|  |  |  | Cc1ncccc1[C@@H](O)CNC(C)(C)C [Compound 03-115] | 6.96 ×10⁻⁶ cm/s | 11 ×10⁻⁶ cm/s | 1.58 |  |  |  | 280 ng/g | 157 ng/mL | 270 ng/mL |

— US10947196B2, “Beta adrenergic agonist and methods of using the same” (CURASEN THERAPEUTICS, INC., priority 2019, dated 2021)
